Experimental data as given in patent US4783480A, “6-keto-prostaglandin E1 derivatives” (Ono Pharmaceutical Co., Ltd., priority 1986, dated 1988).

Assays:
blood pressure = assay: hypotensive activity in the anesthetized dog, intravenous administration; format: in vivo; conditions: relative to PGE1 = 1
Method: (ii) hypotensive activity in dogs and
(ii) Hypotensive activity was measured in the anesthetized dog by intravenous administration, and as active control, PGE1 was used.

[1] = tested on: blood platelet aggregation induced by ADP; assay: inhibitory activity of blood platelet aggregation induced by ADP in rats; format: cell-based, rat; conditions: relative to PGE1 = 1
From the text: (iii) inhibitory activity of blood platelet aggregation induced by ADP in rats. The experimental methods are described hereinafter.
(iii) The concentrations required to inhibit blood platelet aggregation induced in rats by ADP (adenosine diphosphate) are shown relative to PGE1.

[2] = toxicity (LD50) by intravenous administration in mice; conditions: mouse, in vivo
[3] = tested on: carbon tetrachloride-induced acute liver damage (plasma GOT and GPT); assay: cytoprotective activity in carbon tetrachloride-induced acute liver damage in rats; format: in vivo, rat; conditions: for minimal effective dose: Rattus norvegicus, sc, rats, dosed three times (0, 6, 12 hrs), read-out: Inhibiting activity of CCl4 induced liver damage, minimum effective dose; for activity in the inhibition of liver damage induced by carbon tetrachloride compared with compounds (d) and (e): words
Method: (i) cytoprotective activity in carbon tetrachloride-induced acute liver damage in rats.
(i) Inhibitory activity on liver damage induced by carbon tetrachloride.
A solution of carbon tetrachloride (2000 μl) dissolved in olive oil (10 ml) was administered to Wistar male rates (body weight 190-220 g) at a rate of 2000 μl/kg animal body weight by intraperitoneal injection.
A solution of a compound of the present invention or of one of the comparison compounds in olive oil (2 ml/kg animal body weight) was administered three times, at the same time as, and then 6 hrs and 12 hrs after, the dosage of carbon tetrachloride, and blood was collected twice after 24 hrs and 48 hrs after the first dosage. The blood was centrifuged and plasma GOT (glutamic oxalacetic transaminase) activity and plasma GPT (glutamic pyruvic transaminase) activity were measured.

Inhibiting activity of blood platelet aggregation (PGE1 = 1) [1]	Compound	Hypotensive activity (PGE1 = 1) (blood pressure)	LD50 [2] [mg/kg]	minimal effective dose [3] [mg/kg]	activity in the inhibition of liver damage induced by carbon tetrachloride compared with compounds (d) and (e) [3]
0.0053	CCCC[C@H](C)C[C@H](O)/C=C/[C@H]1[C@H](O)CC(=O)[C@@H]1CC(=O)CCCCC(=O)N[C@@H](Cc1ccccc1)C(=O)OC [Example 2(a), N[(13E)-(11α,15α,17S)6,9-dioxo-11,15-dihydroxy-17,20-dimethylprost-13-en-1-oyl]-L-phenylalanine methyl ester]	0.014	–	0.03	almost the same activity
506	CCCC[C@H]1CC[C@H]([C@H](O)/C=C/[C@H]2[C@H](O)CC(=O)[C@@H]2CC(=O)CCCCC(=O)O)C1 [(e), reference compound]	24.5	–	0.005	–

Continued, compound first:

Compound	Inhibiting activity of blood platelet aggregation (PGE1 = 1) [1]	Hypotensive activity (PGE1 = 1) (blood pressure)	LD50 [2] [mg/kg]	minimal effective dose [3] [mg/kg]	activity in the inhibition of liver damage induced by carbon tetrachloride compared with compounds (d) and (e) [3]
CCCC[C@H]1CC[C@H]([C@H](O)/C=C/[C@H]2[C@H](O)CC(=O)[C@@H]2CC(=O)CCCCC(=O)N[C@@H](Cc2ccccc2)C(=O)O)C1 [Example 1, N-[(13E)-(11α,15α,16S,18S)-6,9-dioxo-11,15-dihydroxy-16,18-ethano-20-ethylprost-13-en-1-oyl]-L-phenylalanine]	0.01	0.03	22	< 0.01	almost the same activity
CCCC[C@H]1CC[C@H]([C@H](O)/C=C/[C@H]2[C@H](O)CC(=O)[C@@H]2CC(=O)CCCCC(=O)N[C@@H](CC(C)C)C(=O)O)C1 [1(b), N-[(13E)-(11α,15α,16S,18S)-6,9-dioxo-11,15-dihydroxy-16,18-ethano-20-ethylprost-13-en-1-oyl]-L-leucine]	0.01	0.01	30	< 0.01	almost the same activity
CCCCC(C)C[C@H](O)/C=C/[C@H]1[C@H](O)CC(=O)[C@@H]1CC(=O)CCCCC(=O)O (some centres unmarked) [(d), reference compound]	68	21	–	0.03	–
